In patent US12077503B2, “Substituted cyclic amides and their use as herbicides” (FMC CORPORATION, priority 2015, dated 2024):

Tests used:
Format in all cases: in vivo
[1] = test system: Galium (catchweed bedstraw, Galium aparine); assay: Test C preemergence; settings: for Plant response rating (scale of 0 to 100), Galium: 0 is no effect, 100 is complete control
Summary of the method: (§1)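 Seeds in loam-sand soil treated preemergence, or plants in peat-based medium sprayed postemergence at 2–18 cm (1- to 4-leaf stage), with compound in a non-phytotoxic solvent mixture containing surfactant. Greenhouse-held 13–15 d, then visually rated against controls on a 0–100 scale (0 = no effect, 100 = complete control); dash = not tested.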

[2] = test system: blackgrass (Alopecurus myosuroides); assay: Test C preemergence; settings: for Plant response rating (scale of 0 to 100), Blackgrass: 0 is no effect, 100 is complete control
Summary of the method: as §1

[3] = test system: lambsquarters (Chenopodium album); assay: Test C preemergence; settings: for Plant response rating (scale of 0 to 100), Lambsquarters: 0 is no effect, 100 is complete control
Summary of the method: as §1

[4] = test system: wheat (winter wheat, Triticum aestivum); assay: Test C preemergence; settings: for Plant response rating (scale of 0 to 100), Wheat: 0 is no effect, 100 is complete control
Summary of the method: as §1

corn (Zea mays) = assay: Test C preemergence; settings: for Plant response rating (scale of 0 to 100), Corn: 0 is no effect, 100 is complete control
Summary of the method: as §1

[5] = test system: crabgrass, large (large crabgrass, Digitaria sanguinalis); assay: Test C preemergence; settings: for Plant response rating (scale of 0 to 100), Crabgrass, Large: 0 is no effect, 100 is complete control
Summary of the method: as §1

[6] = test system: pigweed (Amaranthus retroflexus); assay: Test C preemergence; settings: for Plant response rating (scale of 0 to 100), Pigweed: 0 is no effect, 100 is complete control
Summary of the method: as §1

[7] = test system: johnsongrass (Sorghum halepense); assay: Test C preemergence; settings: for Plant response rating (scale of 0 to 100), Johnsongrass: 0 is no effect, 100 is complete control
Summary of the method: as §1

[8] = test system: foxtail, giant (giant foxtail, Setaria faberii); assay: Test C preemergence; settings: for Plant response rating (scale of 0 to 100), Foxtail, Giant: 0 is no effect, 100 is complete control
Summary of the method: as §1

[9] = test system: ragweed (common ragweed, Ambrosia elatior); assay: Test C preemergence; settings: for Plant response rating (scale of 0 to 100), Ragweed: 0 is no effect, 100 is complete control
Summary of the method: as §1

[10] = test system: Galium (catchweed bedstraw, Galium aparine); assay: Test A postemergence; settings: Galium, post-emergence, 240 h, read-out: Plant response rating, Galium
Summary of the method: (§2)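 Seeded soil received test chemicals as a preemergence directed spray, and seedlings at one to two leaves, 2–10 cm tall, received them postemergence, in a non-phytotoxic, surfactant-containing solvent mixture. Pots were held in a greenhouse for approximately 10 d, then rated for injury from 0, no effect, to 100, complete control.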

[11] = test system: giant foxtail (Setaria faberii); assay: Test A postemergence; settings: Setaria faberi, post-emergence, 240 h, read-out: Plant response rating, Foxtail, Giant
Summary of the method: as §2

[12] = test system: barnyardgrass (Echinochloa crus-galli); assay: Test A postemergence; settings: Echinochloa crus-galli, post-emergence, 240 h, read-out: Plant response rating, Barnyardgrass
Summary of the method: as §2

Kochia (Kochia scoparia) = assay: Test A postemergence; settings: Bassia scoparia, post-emergence, 240 h, read-out: Plant response rating, Kochia
Summary of the method: as §2

[13] = test system: wheat (Triticum aestivum); assay: Test A postemergence; settings: Triticum aestivum, post-emergence, 240 h, read-out: Plant response rating, Wheat
Summary of the method: as §2

[14] = 62 g ai/ha, scale 0 to 100, 0 no effect, 100 complete control
[15] = 125 g ai/ha, postemergence, visual rating after approx. 10 d, 0 to 100 scale (0 no effect, 100 complete control)
[16] = Postemergence, 500 g ai/ha, 0 to 100 scale where 0 is no effect and 100 is complete control

With CN1C[C@H](c2ccc(C(F)(F)F)cc2)[C@@H](C(=O)Nc2cccc(F)c2F)C1=O [Compound 623, (3S,4S)—N-(2,3-difluorophenyl)-1-methyl-2-oxo-4-[4-(trifluoromethyl)phenyl]-3-pyrrolidinecarboxamide] the “Plant response rating (scale of 0 to 100), Galium” value ([1]; 8 g ai/ha) was 90, the “Plant response rating (scale of 0 to 100), Galium” value ([1]; 16 g ai/ha) was 85 and the “Plant response rating (scale of 0 to 100), Galium” value ([1]; 31 g ai/ha) was 85. The “Plant response rating, Galium” value [1, 14] was 90, the “Plant response rating (scale of 0 to 100), Blackgrass” value ([2]; 8 g ai/ha) was 0 and the “Plant response rating (scale of 0 to 100), Blackgrass” value ([2]; 16 g ai/ha) was 40. The “Plant response rating (scale of 0 to 100), Blackgrass” value ([2]; 31 g ai/ha) was 60, the “Plant response rating, Blackgrass” value [2, 14] was 90 and the “Plant response rating (scale of 0 to 100), Lambsquarters” value ([3]; 8 g ai/ha) was 10. The “Plant response rating (scale of 0 to 100), Lambsquarters” value ([3]; 16 g ai/ha) was 30, the “Plant response rating (scale of 0 to 100), Lambsquarters” value ([3]; 31 g ai/ha) was 60 and the “Plant response rating, Lambsquarters” value [3, 14] was 50. The “Plant response rating (scale of 0 to 100), Wheat” value ([4]; 8 g ai/ha) was 20, the “Plant response rating (scale of 0 to 100), Wheat” value ([4]; 16 g ai/ha) was 0 and the “Plant response rating (scale of 0 to 100), Wheat” value ([4]; 31 g ai/ha) was 40. The “Plant response rating, Wheat” value [4, 14] was 35, the “Plant response rating (scale of 0 to 100), Corn” value (corn (Zea mays); 8 g ai/ha) was 10 and the “Plant response rating (scale of 0 to 100), Corn” value (corn (Zea mays); 16 g ai/ha) was 30. For the same compound, the “Plant response rating (scale of 0 to 100), Corn” value (corn (Zea mays); 31 g ai/ha) was 60, the “Plant response rating, Corn” value (corn (Zea mays); [14]) was 65 and the “Plant response rating (scale of 0 to 100), Crabgrass, Large” value ([5]; 8 g ai/ha) was 90. For the same compound, the “Plant response rating (scale of 0 to 100), Crabgrass, Large” value ([5]; 16 g ai/ha) was 90, the “Plant response rating (scale of 0 to 100), Crabgrass, Large” value ([5]; 31 g ai/ha) was 95 and the “Plant response rating, Crabgrass, Large” value [5, 14] was 95. For the same compound, the “Plant response rating (scale of 0 to 100), Pigweed” value ([6]; 8 g ai/ha) was 75, the “Plant response rating (scale of 0 to 100), Pigweed” value ([6]; 16 g ai/ha) was 85 and the “Plant response rating (scale of 0 to 100), Pigweed” value ([6]; 31 g ai/ha) was 85. For the same compound, the “Plant response rating, Pigweed” value [6, 14] was 85, the “Plant response rating (scale of 0 to 100), Johnsongrass” value ([7]; 8 g ai/ha) was 50 and the “Plant response rating (scale of 0 to 100), Johnsongrass” value ([7]; 16 g ai/ha) was 15. The “Plant response rating (scale of 0 to 100), Johnsongrass” value ([7]; 31 g ai/ha) was 50, the “Plant response rating, Johnsongrass” value [7, 14] was 70 and the “Plant response rating (scale of 0 to 100), Foxtail, Giant” value ([8]; 8 g ai/ha) was 85. For the same compound, the “Plant response rating (scale of 0 to 100), Foxtail, Giant” value ([8]; 16 g ai/ha) was 90, the “Plant response rating (scale of 0 to 100), Foxtail, Giant” value ([8]; 31 g ai/ha) was 90 and the “Plant response rating, Foxtail, Giant” value [8, 14] was 90. The “Plant response rating (scale of 0 to 100), Ragweed” value ([9]; 8 g ai/ha) was 0, the “Plant response rating (scale of 0 to 100), Ragweed” value ([9]; 16 g ai/ha) was 20 and the “Plant response rating (scale of 0 to 100), Ragweed” value ([9]; 31 g ai/ha) was 45. For the same compound, the “Plant response rating, Ragweed” value [9, 14] was 75, the pest or weed control at 125 g/ha [10, 15] was 50% and the pest or weed control at 500 g/ha [10, 16] was 60%. For the same compound, the pest or weed control at 125 g/ha [11, 15] was 90%, the pest or weed control at 500 g/ha [11, 16] was 90% and the pest or weed control at 125 g/ha [12, 15] was 90%. The pest or weed control at 500 g/ha [12, 16] was 90%, the pest or weed control at 125 g/ha (Kochia (Kochia scoparia); [15]) was 40% and the pest or weed control at 500 g/ha (Kochia (Kochia scoparia); [16]) was 70%. The plant injury at 125 g/ha [13, 15] was 40% and the plant injury at 500 g/ha [13, 16] was 70%.
